Marks after values point to notes of the source that are not given here.
Tests used:
Format in all cases: in vivo
[1] = system: Puccinia recondite f. sp. tritici (the causal agent of wheat leaf rust); test: Test A: wheat leaf rust, preventive spray on wheat seedlings, visual disease rating; conditions: wheat leaf rust, preventive spray on wheat seedlings
How it was run: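 This was a preventive test: Puccinia recondite f. sp. tritici inoculum was applied one day after compound spray to run-off. Test suspensions were made in 50/50 acetone/water with 250 ppm surfactant, at 200 ppm (800 g/ha equivalent) or 40 ppm. Visual ratings of % disease control relative to controls were made after 24 h of saturated humidity and 7 growth-chamber days, all at 20° C.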

[2] = system: Blumeria graminis f. sp. tritici (also known as Erysiphe graminis f. sp. tritici, the causal agent of wheat powdery mildew); test: Test D: wheat powdery mildew, preventive spray on wheat seedlings, visual disease rating; conditions: wheat powdery mildew, preventive spray on wheat seedlings
How it was run: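 Preventive test: seedlings sprayed to run-off and inoculated with powdery mildew spores one day later. Suspensions were made in 50/50 acetone/water with 250 ppm Trem 014 surfactant (200 ppm equals 800 g/ha). Visual ratings after 8 days at 20 °C give percent disease control versus controls.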

[3] = system: Septoria tritici (the causal agent of wheat leaf blotch); test: Test B: wheat leaf blotch, preventive spray on wheat seedlings, visual disease rating; conditions: wheat leaf blotch, preventive spray on wheat seedlings
How it was run: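 Preventive test: Septoria tritici spores applied one day after run-off spraying of seedlings (200 ppm equals 800 g/ha; some tests 40 ppm). After 48 h at 24 °C saturated atmosphere and 19 days at 20 °C, disease scored visually as % control relative to untreated plants.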

[4] = system: Botrytis cinerea (the causal agent of tomato Botrytis); test: Test C: tomato Botrytis, preventive spray on tomato seedlings, visual disease rating; conditions: tomato Botrytis, preventive spray on tomato seedlings
How it was run: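 Preventive test: B. cinerea spore inoculation one day after tomato seedlings were sprayed to run-off with compound suspended in 50/50 acetone–water plus 250 ppm surfactant. Plants held 48 h at 20° C in saturated air, then 3 days at 24° C; visual ratings scored 100 (full control) to 0 versus controls; some entries used 40 ppm.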

[5] = no asterisk (standard test suspension concentration, not 40 ppm)
[6] = asterisk: 40 ppm test suspension

SMILES	Test A rating (100 = 100% disease control, 0 = no disease control relative to the controls) [1, 5]	Test D rating (100 = 100% disease control, 0 = no disease control relative to the controls) [2, 5]	Test B rating (100 = 100% disease control, 0 = no disease control relative to the controls) [3, 5]	Test C rating (100 = 100% disease control, 0 = no disease control relative to the controls) [4, 5]	Test A rating (100 = 100% disease control, 0 = no disease control relative to the controls) [1, 6]	Test D rating (100 = 100% disease control, 0 = no disease control relative to the controls) [2, 6]	Test B rating (100 = 100% disease control, 0 = no disease control relative to the controls) [3, 6]	Test C rating (100 = 100% disease control, 0 = no disease control relative to the controls) [4, 6]
Cc1cc(F)ccc1C(O)c1c(Br)nc(C)n1-c1ccc(F)cc1Br (stereo not drawn) [compound 173]	99%	48%	100%	16%				
Cc1nc(Cl)n(-c2ccc(F)cc2F)c1C(O)c1ccc(F)cc1F (stereo not drawn) [compound 162]	100%	98%	100%	100%				
Cc1ccc(C(O)c2c(Cl)nc(C)n2-c2c(F)cccc2F)c(F)c1 (stereo not drawn) [compound 55]					100* %	98* %	100* %	98* %
Cc1nc(Br)c(C(O)c2ccc(Cl)cc2)n1-c1ccc(F)cc1Cl (stereo not drawn) [compound 60]	100%	73%	100%	99%				
Cc1cccc(F)c1-n1c(C)nc(Cl)c1C(O)c1ccc(F)cc1F (stereo not drawn) [compound 339]					98* %	76* %	98* %	86* %
Cc1nc(Br)c(C(O)c2ccc(F)cc2Cl)n1-c1ccc(F)cc1Cl (stereo not drawn) [compound 142]	100%	71%	100%	99%				
COc1ccc(C(O)c2c(C)nc(Cl)n2-c2c(F)cccc2Br)c(C)c1 (stereo not drawn) [compound 213]					100* %	91* %	100* %	100* %
Cc1nc(Br)c(C(O)c2c(F)cc(F)cc2F)n1-c1ccc(F)cc1F (stereo not drawn) [compound 177]	100%	0%	100%	99%				
Cc1nc(Cl)n(-c2c(F)cccc2F)c1C(O)c1c(F)cccc1F (racemic) [compound 24]					100* %	91* %	100* %	100* %
Cc1cccc(Cl)c1-n1c(C)nc(Cl)c1C(O)c1ccc(F)cc1Cl (stereo not drawn) [compound 344]					99* %	72* %	95* %	54* %
OC(c1ccc(F)cc1F)c1c(Cl)nc(Cl)n1-c1ccc(F)cc1Cl (single isomer, unassigned) [compound 19]	100%	98%	100%	100%				
Cc1nc(Cl)c(C(O)c2ccc(F)cc2Cl)n1-c1c(F)cccc1Cl (stereo not drawn) [compound 200]					100* %	98* %	100* %	99* %
Cc1nc(Cl)c(C(O)c2ccc(F)cc2Cl)n1-c1ccc(F)cc1Cl (stereo not drawn) [compound 129]	100%	0%	100%	98%				
Cc1nc(Br)c(C(O)c2c(F)cc(F)cc2F)n1-c1ccc(F)cc1Cl (stereo not drawn) [compound 141]	100%	96%	100%	99%				
Cc1nc(Cl)c(C(O)c2c(F)cc(Cl)cc2F)n1-c1ccc(F)cc1Cl (stereo not drawn) [compound 156]	98%	0%	92%	16%				
Cc1nc(Cl)n(-c2c(F)cccc2Cl)c1C(O)c1ccc(F)cc1F (stereo not drawn) [compound 332]					100* %	92* %	100* %	99* %
Cc1nc(Cl)c(C(O)c2ccc(Cl)cc2)n1-c1ccc(F)cc1Cl (stereo not drawn) [compound 59]	100%	73%	100%	99%				
OC(c1ccc(F)cc1F)c1c(Cl)nc(Br)n1-c1c(F)cc(F)cc1Cl (stereo not drawn) [compound 121]					100* %	98* %	100* %	100* %
Cc1cc(F)ccc1C(O)c1c(C)nc(Cl)n1-c1c(F)cccc1Cl (stereo not drawn) [compound 208]					100* %	81* %	100* %	99* %
Cc1nc(Cl)c(C(O)c2ccc(F)cc2F)n1-c1c(F)cccc1Br (stereo not drawn) [compound 316]					100* %	95* %	100* %	99* %
COc1ccc(C(O)c2c(Cl)nc(C)n2-c2ccc(F)cc2Cl)c(Cl)c1 (racemic) [compound 255]	100%	0%	96%	8%				

Reference: US20130143929A1, “FUNGICIDAL IMIDAZOLES” (EI DU PONT DE NEMOURS AND COMPANY, priority 2010, published 2013)
